Type in all cases: cell-based
The subject of test [1] is normal primary human skin fibroblastic cells. Description: Intracellular content of collagen in fibroblasts (Western blot and ELISA), relative to control. The following applies: 48 hours; for relative intracellular content of collagen: control group = 100%. Here is the method: (§1) The normal primary human skin fibroblastic cells (purchased from ATCC) were cultivated in a Fibroblast Growth Medium. The cells thus provided were used in the following experiments. […]
(§2) The normal primary human skin fibroblastic cells provided by [Preparation Example C] were divided into 37 groups and were respectively cultivated with the following medium for 48 hours: • 1. Group 1: a Fibroblast Growth Medium • 2. Group 2-1 to 2-3: Fibroblast Growth Media containing the pachymic acid (PA) provided by [Preparation Example B] at a concentration of 0.01, 0.1 and 1 μM, respectively; • 3. Group 3-1 to 3-3: Fibroblast Growth Media containing the dehydropachymic acid (DPA) provided by [Preparation Example B] at a concentration of 0.01, 0.1 and 1 μM, respectively; • 4. Group 4-1 to 4-3: Fibroblast Growth Media containing the tumulosic acid (TA) provided by [Preparation Example B] at a concentration of 0.01, 0.1 and 1 μM, respectively; • 5. Group 5-1 to 5-3: Fibroblast Growth Media containing the dehydrotumulosic acid (DTA) provided by [Preparation Example B] at a concentration of 0.01, 0.1 and 1 μM, respectively; • 6. Group 6-1 to 6-3: Fibroblast Growth Media containing the polyporenic acid C (PAC) provided by [Preparation Example B] at a concentration of 0.01, 0.1 and 1 μM, respectively; • 7. Group 7-1 to 7-3: Fibroblast Growth Media containing the 3-epi-dehydrotumulosic acid (EDTA) provided by [Preparation Example B] at a concentration of 0.01, 0.1 and 1 μM, respectively; • 8. Group 8-1 to 8-3: Fibroblast Growth Media containing the dehydrotrametenolic acid (DTTA) provided by [Preparation Example B] at a concentration of 0.01, 0.1 and 1 μM, respectively; • 9. Group 9-1 to 9-3: Fibroblast Growth Media containing the trametenolic acid (TTA) provided by [Preparation Example B] at a concentration of 0.01, 0.1 and 1 μM, respectively; • 10. Group 10-1 to 10-3: Fibroblast Growth Media containing the poricoic acid A (PAA) provided by [Preparation Example B] at a concentration of 0.01, 0.1 and 1 μM, respectively; • 11. Group 11-1 to 11-3: Fibroblast Growth Media containing the dehydroeburicoic acid (DEA) provided by [Preparation Example B] at a concentration of 0.01, 0.1 and 1 μM, respectively; • 12. Group 12-1 to 12-3: Fibroblast Growth Media containing the poricoic acid B (PAB) provided by [Preparation Example B] at a concentration of 0.01, 0.1 and 1 μM, respectively; • 13. Group 13-1 to 13-3: Fibroblast Growth Media containing the eburicoic acid (EA) provided by [Preparation Example B] at a concentration of 0.01, 0.1 and 1 μM, respectively.
Thereafter, the cell medium of each group was collected and concentrated. Then, the intracellular content of collagen was measured and analyzed by Western blot and enzyme-linked immunosorbent assay (ELISA).

Test [2] has the same test system. As to the kind of experiment: Content of collagen in cell medium (extracellular collagen) of fibroblasts (Western blot and ELISA), relative to control. The settings on record: 48 hours; for relative content of collagen in the medium (extracellular content of collagen): control group = 100%; for extracellular contents of collagen (collagen in cell medium) as compared to the control group (in words): treated cells vs control group. Here is the method: The normal primary human skin fibroblastic cells (purchased from ATCC) were cultivated in a Fibroblast Growth Medium. The cells thus provided were used in the following experiments.
The normal primary human skin fibroblastic cells provided by [Preparation Example C] were divided into 4 groups and were respectively cultivated with the following medium for 48 hours: • 1. Group I: a Fibroblast Growth Medium; • 2.
(§3) Thereafter, the cell medium of each group was collected and concentrated. Then, the intracellular content of collagen, the content of collagen in cell medium (i.e., extracellular content of collagen) and the content of hyaluronic acid in cell medium were measured and analyzed by Western blot and enzyme-linked immunosorbent assay (ELISA).
as §2
The content of collagen in the medium of each group (i.e., extracellular content of collagen) was provided.

For test [3] the test system is unchanged. As to the kind of experiment: Content of hyaluronic acid in cell medium of fibroblasts (Western blot and ELISA), relative to control. The settings on record: 48 hours; for relative content of hyaluronic acid in the medium (extracellular content of hyaluronic acid): control group = 100%; for contents of hyaluronic acid as compared to the control group (in words): treated cells vs control group. The method, then:
as §1, §3, §2
The content of hyaluronic acid in the medium of each group (i.e., extracellular content of hyaluronic acid) was provided.
In general terms: In western blotting, separated proteins are transferred to a membrane and probed.

Turning to `C=C(CC[C@@H](C(=O)O)[C@H]1[C@H](O)C[C@@]2(C)C3=C(CC[C@]12C)[C@@]1(C)CC[C@H](O)C(C)(C)[C@@H]1CC3)C(C)C` [Tumulosic acid (TA), tumulosic acid], the “relative intracellular content of collagen” value in test [1] (0.01 μM) is 148%; in test [1] (0.1 μM), 127%; in test [1] (1 μM) it was 147%. Moreover, the “relative content of collagen in the medium (extracellular content of collagen)” value (shortened to “relative content of collagen”) in test [2] (0.01 μM) is reported as 140%; in test [2] (0.1 μM), 136%; in test [2] (1 μM) it was 141%. Besides, the “relative content of hyaluronic acid in the medium (extracellular content of hyaluronic acid)” value (from here on “relative content of hyaluronic acid”) in test [3] (0.01 μM) is reported as 100%; in test [3] (0.1 μM), 123%; in test [3] (1 μM) it was 124%.

`C=C(CC[C@@H](C(=O)O)[C@H]1[C@H](O)C[C@@]2(C)C3=CC[C@H]4C(C)(C)C(=O)CC[C@]4(C)C3=CC[C@]12C)C(C)C` [Polyporenic acid C (PAC), polyporenic acid C]: the “relative intracellular content of collagen” value in test [1] (0.01 μM) was determined as 162%; in test [1] (0.1 μM), 182%; in test [1] (1 μM), 200%. In addition, the “intracellular contents of collagen as compared to the control group (in words)” value in test [1] (treated cells vs control group) is on record as “significantly enhanced”. Moreover, the results for the “relative content of collagen” value in test [2] (0.01 μM), in test [2] (0.1 μM) and in test [2] (1 μM) were 134%, 162% and 153%, respectively. Besides, the “extracellular contents of collagen (collagen in cell medium) as compared to the control group (in words)” value in test [2] is “significantly enhanced”. Further, the “relative content of hyaluronic acid” value in test [3] (0.01 μM) stood at 93%; in test [3] (0.1 μM), 113%; in test [3] (1 μM), 98%. For the same compound, the “contents of hyaluronic acid as compared to the control group (in words)” value in test [3] is “significantly enhanced”.

In the case of `CC(C)=CCC[C@@H](C(=O)O)[C@H]1CC[C@@]2(C)C3=C(CC[C@]12C)[C@@]1(C)CC[C@H](O)C(C)(C)[C@@H]1CC3` [Trametenolic acid (TTA), trametenolic acid], the “relative intracellular content of collagen” value in test [1] (0.01 μM) is 95%; in test [1] (0.1 μM) it was 79%; in test [1] (1 μM) it was 79%. Further, the figures for the “relative content of collagen” value in test [2] (0.01 μM), in test [2] (0.1 μM) and in test [2] (1 μM) were 141%, 149% and 142%, respectively. For the same compound, the “extracellular contents of collagen (collagen in cell medium) as compared to the control group (in words)” value in test [2] was “significantly enhanced”. Moreover, the figures for the “relative content of hyaluronic acid” value in test [3] (0.01 μM), in test [3] (0.1 μM) and in test [3] (1 μM) were 83%, 108% and 125%, respectively. Further, the “contents of hyaluronic acid as compared to the control group (in words)” value in test [3] is given as “significantly enhanced”.
